From patent US8288439B2, “Methods and compositions for the inhibition of HIV-1 replication” (The United States of America, as represented by the …, priority 2003, dated 2012)
Entries after “also recorded” stand apart in the source; their conditions may differ. Where two headings read alike, the source gives them in different places.

Columns and labels:
CD4 and CCR5 = experiment: Macrophage CD4 and CCR5 expression; type: cell-based, human
Description: Macrophages were also treated with p21 siRNA duplexes (5 nM) five days prior to HIV infection and the effect on HIV-growth was determined (% of positive HIV control, no siRNA treatment) (representative experiment, n=3) (FIG. 6B). The percent of HIV-1 infection was determined comparing the p24 levels in untreated vs oligo or siRNA treated macrophages. Cells treated with p21 and negative control siRNA (5 days) were also analyzed by flow cytometry for CD4 and CCR5 cell surface expression (FIG. 6C). Nested PCR was employed in order to detect pro-viral DNA on days 1 and 3 after HIV-1BaL infection in macrophages treated with p21 or control siRNA or negative control si RNA. Control represents uninfected cells (FIG. 6D).

HIV-1 [1] = details: for viral replication / HIV-1 growth as determined by p24 levels: oligonucleotide 50 nM, after HIV-1 infection and at refeeding, day 12, vs HIV control without oligo
Description: Monocytes are plated in 6 well plates (Corning Costar Corporation, Cambridge, Mass.), at 6×10^6 cells/well or in Lab-Tek chamber slides (Naperville, Ill.) at 1.5×10^6/chamber in Dulbecco's modified Eagle's medium (DMEM) with 2 mM L-glutamine and 10 μg/ml gentamicin (BioWhittaker) or in other suitable vessels. After adherence (4-6 hr at 37° C. and 5% CO2), 10% human AB-serum (Sigma, St. Louis, Mo.) is added to the culture medium. Cells are cultured 5-10 days to allow differentiation into macrophages before being infected with HIV-1BaL TCID50=1000-5000 (Advanced Biotechnologies Inc., Columbia, Md.) or other M tropic (R5) virus for 90 minutes at 37° C. The levels of endotoxin are below the limit of detection in virus preparations. Unbound virus is removed by washing the cells with media and refeeding with complete DMEM containing 10% human serum. Control populations of adherent macrophages are mock-infected and cultured in parallel. Every 3 to 4 days, half the medium is removed for virus assay and replaced with fresh complete medium for two weeks. Supernatant p24 antigen is assayed using the p24 core profile enzyme-linked immunosorbent assay (ELISA) kit (Perkin-Elmer Life Sciences, Wilmington, Del.). […] Additionally, macrophages are treated with p21 anti-sense phosphorothioate oligonucleotides:

p21 (CDKN1A) [2] = experiment: p21 (CDKN1A) gene expression in HIV-1 infected macrophages (ribonuclease protection assay); type: cell-based, human; details: for human p21 expression: murine-derived antisense sequences tested in human macrophages
Description: Total cellular RNA is extracted from adherent control or infected monocytes with the RNeasy minikit (Qiagen, Valencia, Calif.) and analyzed by northern blot (Wahl, S. M. et al. (1998) “MYCOBACTERIUM AVIUM COMPLEX AUGMENTS MACROPHAGE HIV-1 PRODUCTION AND INCREASES CCR5 EXPRESSION. Proc Natl Acad Sci USA 95:12574-12579) using an HIV-full length probe (NIH AIDS Research and Reference Reagent Program) and GAPDH (glyceraldehyde-3-phosphate dehydrogenase) (Gibco BRL, Gaithersburg, Md.). For the RPA 3 μg of RNA is evaluated using the hStress tRiboquant Multi-Probe RPA system (BD Pharmingen, San Diego, Calif.) and densities are normalized to the GAPDH gene using ImageQuant (Molecular Dynamics, Sunnyvale, Calif.)

macrophages = experiment: Macrophage cell viability / cell number, morphology and ultrastructural analysis; details: for cell viability (cell number, morphology, ultrastructural analysis): infected or uninfected macrophage cultures treated with oligonucleotides
Description: To determine whether the increased p21 influenced viral life cycle, the cells are treated with two distinct p21 anti-sense oligonucleotides (SEQ ID NO. 7 and SEQ ID NO. 9).

HIV-1 [3] = experiment: Transmission electron microscopy (ultrastructural analysis) of HIV-1 infected macrophages; type: cell-based; details: day 12; ≧200 cells/treatment condition
Description: Gluteraldehyde-fixed uninfected and infected cells are postfixed in OsO4, dehydrated through graded ethanol and propylene oxide, embedded in Spurr's epoxy, and thick- and thin-sectioned. Thin sections are placed on copper grids, stained with uranyl acetate and lead citrate, and viewed in a Zeiss EM10 microscope (LEO Electron Microscope; Oberkochen, Germany).

p21 (CDKN1A) [4] = experiment: p21 protein levels in macrophages; type: cell-based, human; details: concomitant with reducing HIV infection
Description: Uninfected and HIV-1 infected macrophages that have been cultured for twelve days are washed twice with PBS, fixed with 2% paraformaldehyde in PBS, washed and incubated in 100 mM glycine in PBS for 20 min, followed by 0.5% Triton-X-100 for 10 min and rinsed with PBS. Cells are then labeled with rabbit anti-p21 antibody at 5 μg/ml (Santa Cruz Biotechnology, Santa Cruz, Calif.) in PBS containing 5% donkey serum (Jackson ImmunoResearch Laboratories, Inc., West Grove, Pa.) for 1 hr, washed extensively, then incubated with Texas-Red conjugated secondary antibody at 3 μg/ml at room temperature (Molecular Probes, Eugene, Oreg.). Non-specific background is determined using an irrelevant rabbit isotype control antibody and secondary antibody alone at the same concentrations above. Images are captured using a Leica TCS-4D confocal microscope system with a Kr—Ar laser on a DMR upright microscope using a 40×, 1.0 numerical aperture objective. Fluorescence intensity analysis is performed using confocal microscopy and Metamorph analysis (Universal Imaging, Downington, Pa.). […]

p21 = experiment: Induction of p21 gene and protein expression in macrophages treated with Vpr; type: cell-based, human; details: Vpr 6 μg/ml for 3 hr
Description: Macrophages were treated with Vpr (6 μg/ml) for 3 hr and found to show increased gene transcription and protein expression for p21 when treated with Vpr (FIG. 7A and FIG. 7B).

## 5′-ACATCACCAGGATTGGACAT-3′ (all phosphorothioate, sugars by position and methylation of C not given here; listed as Mus musculus) [SEQ ID NO. 9]
CD4 and CCR5
  effect on macrophage CD4 and CCR5: no direct effect
HIV-1 [1]
  viral replication / HIV-1 growth as determined by p24 levels: reduce viral replication; also recorded: inhibit HIV-1 growth
p21 (CDKN1A) [2]
  human p21 expression: effective in inhibiting
macrophages
  cell viability (cell number, morphology, ultrastructural analysis): no negative effect

## 5′-TGGATCCGACATGTCAGA-3′ [SEQ ID NO. 14]
HIV-1 [1]
  viral replication / HIV-1 growth as determined by p24 levels: not
HIV-1 [1]; listed as SEQ ID NO. 13
  viral replication / HIV-1 growth as determined by p24 levels: did not suppress

## 5′-TGTCAGGCTGGTCTGCCTCC-3′ (all phosphorothioate, sugars by position and methylation of C not given here; listed as Mus musculus) [SEQ ID NO. 7]
CD4 and CCR5
  effect on macrophage CD4 and CCR5: no direct effect
HIV-1 [1]
  viral replication / HIV-1 growth as determined by p24 levels: reduce viral replication; also recorded: inhibit HIV-1 growth
p21 (CDKN1A) [2]
  human p21 expression: effective in inhibiting
macrophages
  cell viability (cell number, morphology, ultrastructural analysis): no negative effect

## CC1(C)CC[C@]2(C(=O)O)CC[C@]3(C)[C@H](C(=O)C=C4[C@@]5(C)C=C(C#N)C(=O)C(C)(C)[C@@H]5CC[C@]43C)[C@@H]2C1 [CDDO]
HIV-1 [3]
  detectable virions (TEM): absence or near absence of detectable virions
  numbers of infected cells (ultrastructural analysis, TEM): dramatically reduced numbers of infected cells
p21 (CDKN1A) [4]
  p21 protein levels: variably decrease
HIV-1 [1]; added prior to, or at the time of, infection of macrophages with HIV-1, CDDO 0.1 μM
  release of the viral protein p24 Ag: dose dependent suppression
HIV-1 [1]; macrophages infected with HIV-1
  levels of detectable virus: dramatically reduced
HIV-1 [1]; macrophages pre-treated 45 min, then infected with HIV-1BaL, compared with DMSO control and untreated cells, day 10, n=3, P=0.01
  viral replication as quantitated by p24 levels: reduced viral replication
p21 (CDKN1A) [2]; HIV-1 infected macrophages, day 12 post-infection, mean, n=2
  p21 transcription by ribonuclease protection assay: reduced p21 transcription
macrophages; HIV-1 infected macrophages treated with CDDO or di-CDDO
  cell viability or cell number: Without reducing cell viability or cell number

## Vpr: HIV-1 Vpr gene product, added to macrophages at 6 μg/ml
p21
  p21 gene transcription: increased
  p21 protein expression: increased
